In ChEMBL document CHEMBL2413006, “Acyclic phosph(on)ate inhibitors of Plasmodium falciparum hypoxanthine-guanine-xanthine phosphoribosyltransferase” (Bioorg Med Chem, 2013):

Legend:
[1] = target: T1, Hypoxanthine-guanine phosphoribosyltransferase (Homo sapiens, UniProt P00492); experiment: Inhibition of human HGPRT using xanthine/PRPP assessed as xanthine/guanine conversion to […]guanosine-5'-monophosphate by spectrophotometry in presence of PRPP
T1 sequence (P00492 whole entry): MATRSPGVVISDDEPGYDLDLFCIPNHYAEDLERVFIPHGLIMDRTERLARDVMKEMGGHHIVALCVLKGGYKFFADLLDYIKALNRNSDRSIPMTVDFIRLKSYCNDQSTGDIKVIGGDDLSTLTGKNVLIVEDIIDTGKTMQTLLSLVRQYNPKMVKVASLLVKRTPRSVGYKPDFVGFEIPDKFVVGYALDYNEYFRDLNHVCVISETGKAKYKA

[2] = Inhibition of Plasmodium falciparum HGXPRT assessed as xanthine/guanine conversion to xanthosine-5'-monophosphate/guanosine-5'-monophosphate by spectrophotometry in presence of PRPP

| SMILES | Ki [1] [µM] | Ki [2] [µM] |
| --- | --- | --- |
| O=c1[nH]cnc2c(CN[C@H](CO)CC(F)(F)P(=O)(O)O)c[nH]c12 | > 10 | 0.087 |
| O=c1[nH]c(Cl)nc2c(CNC(CO)COP(=O)(O)O)c[nH]c12 (racemic) | > 10 | 9.4 |
| O=c1[nH]cnc2c(CN[C@H](CO)[C@H](O)COP(=O)(O)O)c[nH]c12 | > 10 | 0.98 |
| O=c1[nH]cnc2c(CN[C@H](CO)CCP(=O)(O)O)c[nH]c12 | – | 0.00065 |
| O=c1[nH]cnc2c(CNC(CO)(CO)COP(=O)(O)O)c[nH]c12 | > 10 | 15.3 |
| O=c1[nH]cnc2c(CN[C@H](CO)CC(F)P(=O)(O)O)c[nH]c12 (mixture of isomers) | – | 0.0012 |
| O=c1[nH]cnc2c(CCNCCP(=O)(O)O)c[nH]c12 | > 10 | 0.62 |
| O=c1[nH]cnc2c(CNCC(O)CP(=O)(O)O)c[nH]c12 (racemic) | > 10 | 0.0091 |
| O=c1[nH]cnc2c(CNCCCCP(=O)(O)O)c[nH]c12 | > 10 | 0.49 |
| O=c1[nH]cnc2c(CNCP(=O)(O)O)c[nH]c12 | > 10 | > 20 |
| O=c1[nH]cnc2c(CN[C@@H](CO)CCP(=O)(O)O)c[nH]c12 | – | 0.0234 |
| O=c1[nH]cnc2c(CNCC(CO)CP(=O)(O)O)c[nH]c12 (racemic) | > 10 | 0.49 |

The next lines start with results.

| Ki [1] [µM] | SMILES | Ki [2] [µM] |
| --- | --- | --- |
| > 10 | Nc1nc2c(CN[C@H](CO)COP(=O)(O)O)c[nH]c2c(=O)[nH]1 | 0.0143 |
| 11.3 | O=c1[nH]cnc2c(CCNCCCP(=O)(O)O)c[nH]c12 | > 20 |
| > 10 | O=c1[nH]cnc2c(CNCCCP(=O)(O)O)n[nH]c12 | 0.0276 |
| > 10 | Nc1nc2c(CN[C@H](CO)CC(F)(F)P(=O)(O)O)c[nH]c2c(=O)[nH]1 | 0.1 |
| > 10 | O=c1[nH]cnc2c(CN[C@H](CO)COP(=O)(O)O)c[nH]c12 | 0.0024 |
| 4.9 | O=c1[nH]cnc2c(CNCCCP(=O)(O)O)c[nH]c12 | 0.0106 |
| > 10 | O=c1[nH]cnc2c(CNCCP(=O)(O)O)c[nH]c12 | 1.9 |
| > 10 | Nc1nc2c(CN[C@@H](CO)COP(=O)(O)O)c[nH]c2c(=O)[nH]1 | 0.65 |
| > 10 | O=c1[nH]cnc2c(CNC(CO)COP(=O)(O)O)c[nH]c12 (racemic) | 0.019 |
| > 10 | O=c1[nH]cnc2c(CNCCCCCP(=O)(O)O)c[nH]c12 | 8.6 |
| > 10 | O=c1[nH]cnc2c(CNCCOP(=O)(O)O)c[nH]c12 | 14.4 |
